Results as given in ChEMBL document CHEMBL4130539, “Novel ureidopropanamide based N-formyl peptide receptor 2 (FPR2) agonists with potential application for central nervous system disorders characterized by neuroinflammation” (Eur J Med Chem, 2017).

Assays:
[1] = biological target: T1, N-formyl peptide receptor 2 (Homo sapiens, UniProt P25090); assay: Agonist activity at human FPR2 expressed in human HL60 cells assessed as induction of calcium mobilization measured every 5 secs for 240 secs by Fluo-4-AM dye based fluorometric method; type: functional, cell-based
T1 sequence (P25090 whole entry): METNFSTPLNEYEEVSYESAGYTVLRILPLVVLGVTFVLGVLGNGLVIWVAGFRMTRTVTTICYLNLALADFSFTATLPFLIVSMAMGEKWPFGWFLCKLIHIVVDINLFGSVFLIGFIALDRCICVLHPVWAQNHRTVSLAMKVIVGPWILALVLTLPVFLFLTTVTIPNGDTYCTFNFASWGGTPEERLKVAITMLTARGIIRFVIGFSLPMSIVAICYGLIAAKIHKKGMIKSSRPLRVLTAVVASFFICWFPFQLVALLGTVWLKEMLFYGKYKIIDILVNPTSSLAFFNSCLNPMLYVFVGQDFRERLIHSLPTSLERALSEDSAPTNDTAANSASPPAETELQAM

fMet-Leu-Phe receptor = biological target: T2, fMet-Leu-Phe receptor (Homo sapiens, UniProt P21462); assay: Agonist activity at human FPR1 expressed in human HL60 cells assessed as induction of calcium mobilization measured every 5 secs for 240 secs by Fluo-4-AM dye based fluorometric method; type: functional, cell-based
T2 sequence (P21462 whole entry): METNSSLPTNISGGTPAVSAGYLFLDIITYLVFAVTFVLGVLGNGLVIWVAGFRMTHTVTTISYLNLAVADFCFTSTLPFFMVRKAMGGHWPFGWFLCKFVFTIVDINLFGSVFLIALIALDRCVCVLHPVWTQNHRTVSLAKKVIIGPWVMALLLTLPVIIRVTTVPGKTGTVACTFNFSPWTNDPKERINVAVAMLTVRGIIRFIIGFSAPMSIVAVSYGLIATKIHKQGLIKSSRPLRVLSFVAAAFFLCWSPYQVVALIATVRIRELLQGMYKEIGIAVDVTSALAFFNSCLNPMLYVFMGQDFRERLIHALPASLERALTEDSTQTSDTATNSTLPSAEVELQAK

[2] = biological target: T1, N-formyl peptide receptor 2; assay: Agonist activity at FPR2 in human neutrophils assessed as induction of calcium mobilization measured every 5 secs for 240 secs by Fluo-4-AM dye based fluorometric method; type: functional
[3] = Metabolic stability in rat liver microsomes assessed as parent compound remaining at 10 uM preincubated for 10 mins followed by NADPH addition measured after 30 mins by liquid chromatographic method; type: ADME, microsome; conditions: 0.5 h
[4] = biological target: T3, N-formyl peptide receptor 2 (Homo sapiens) (UniProt P25090); assay: Agonist activity at human FPR2 expressed in human HL60 cells assessed as induction of calcium mobilization measured every 5 secs for 240 secs by Fluo-4-AM dye based fluorometric method relative to WKYMVM; type: functional, cell-based
T3 sequence (whole entry): T1 sequence (P25090 whole entry)

[5] = biological target: T4, fMet-Leu-Phe receptor (Homo sapiens) (UniProt P21462); assay: Agonist activity at human FPR1 expressed in human HL60 cells assessed as induction of calcium mobilization measured every 5 secs for 240 secs by Fluo-4-AM dye based fluorometric method relative to fMLF; type: functional, cell-based
T4 sequence (whole entry): T2 sequence (P21462 whole entry)

[6] = Half life in rat liver microsomes at 10 uM preincubated for 10 mins followed by NADPH addition by liquid chromatographic method; type: ADME, microsome
[7] = Intrinsic clearance in rat liver microsomes at 10 uM preincubated for 10 mins followed by NADPH addition by liquid chromatographic method; type: ADME, microsome
[8] = biological target: T3, N-formyl peptide receptor 2 (Homo sapiens); assay: Agonist activity at FPR2 in human neutrophils assessed as induction of calcium mobilization measured every 5 secs for 240 secs by Fluo-4-AM dye based fluorometric method relative to fMLF

EC50 [1]	EC50 (fMet-Leu-Phe receptor)	EC50 [2]	Stability [3] [%]	EC50 ([1]; read-out: EC50) [nM]	Efficacy [4] [%]	EC50 (fMet-Leu-Phe receptor; read-out: EC50) [nM]	Efficacy [5] [%]	EC50 ([2]; read-out: EC50) [nM]	t1/2 [6] [h]	Microsomal intrinsic clearance (CLint) [7] [µL/min/mg]	Efficacy [8] [%]	Compound
Not Active	Not Active	Not Active	80									N#Cc1ccc(C[C@H](NC(=O)Nc2ccc(F)cc2)C(=O)NCC2(c3ccc(OC(F)(F)F)cc3)CC2)cc1
			38	1500	90	4700	75	4100	1.58	7.29	150	N#Cc1ccc(C[C@@H](NC(=O)Nc2ccc([N+](=O)[O-])cc2)C(=O)NCC2(c3ccccc3)CC2)cc1
			15									O=C(Nc1ccc([N+](=O)[O-])cc1)N[C@H](Cc1c[nH]c2ccccc12)C(=O)NCC1(c2ccccc2)CC1
			5	1800	60	630	100	730			115	COc1ccc(NC(=O)N[C@H](Cc2ccc(C#N)cc2)C(=O)NCC2(c3ccc(F)c(Cl)c3)CC2)cc1
			10	3400	60	450	115	330			155	COc1ccc(NC(=O)N[C@@H](Cc2ccc(C#N)cc2)C(=O)NCC2(c3ccc(F)c(Cl)c3)CC2)cc1
Not Active	Not Active	Not Active	51									COc1ccc(NC(=O)N[C@@H](Cc2ccc(C#N)cc2)C(=O)NCC2(c3ccc(OC(F)(F)F)cc3)CC2)cc1
Not Active	Not Active	Not Active										O=C(Nc1ccc(F)cc1)N[C@H](Cc1c[nH]c2ccccc12)C(=O)NCC1(c2ccccc2)CC1
			39	3000		5900		1700				Cc1ccc(C2(CNC(=O)[C@H](Cc3ccc(C#N)cc3)NC(=O)Nc3ccc(F)cc3)CC2)cc1F
			20	300	90	5400	55	1300	0.783	14.7	95	N#Cc1ccc(C[C@@H](NC(=O)Nc2ccc(F)cc2)C(=O)NCC2(c3ccc(F)c(Cl)c3)CC2)cc1
Not Active	Not Active	Not Active	37						0.983	10.04		Cc1ccc(C2(CNC(=O)[C@@H](Cc3ccc(C#N)cc3)NC(=O)Nc3ccc(F)cc3)CC2)cc1F
			8	16300		10300		1700				COc1ccc(NC(=O)N[C@@H](Cc2ccc(C#N)cc2)C(=O)NCC2(c3ccc(C)c(F)c3)CC2)cc1
		Not Active	4	2000		18800						O=C(Nc1ccc(F)cc1)N[C@@H](Cc1c[nH]c2ccccc12)C(=O)NCC1(c2ccccc2)CC1
	Not Active	Not Active	4	6500								COc1ccc(NC(=O)N[C@H](Cc2c[nH]c3ccccc23)C(=O)NCC2(c3ccccc3)CC2)cc1
			5	6700		2400		1500				O=C(Nc1ccccc1)N[C@@H](Cc1c[nH]c2ccccc12)C(=O)NCC1(c2ccccc2)CC1
			51	6400	60	850	125	730	1.83	6.3	65	O=C(Nc1ccc([N+](=O)[O-])cc1)N[C@@H](Cc1cccnc1)C(=O)NCC1(c2ccccc2)CC1
Not Active	Not Active	Not Active	4									O=C(Nc1ccccc1)N[C@H](Cc1c[nH]c2ccccc12)C(=O)NCC1(c2ccccc2)CC1
Not Active	Not Active	Not Active	43									COc1ccc(NC(=O)N[C@H](Cc2ccc(C#N)cc2)C(=O)NCC2(c3ccc(OC(F)(F)F)cc3)CC2)cc1
			3	110		950		1400				COc1ccc(NC(=O)N[C@@H](Cc2c[nH]c3ccccc23)C(=O)NCC2(c3ccccc3)CC2)cc1
Not Active	Not Active	Not Active	88									N#Cc1ccc(C[C@@H](NC(=O)Nc2ccc(F)cc2)C(=O)NCC2(c3ccc(OC(F)(F)F)cc3)CC2)cc1
Not Active	Not Active	Not Active	10									COc1ccc(NC(=O)N[C@H](Cc2ccc(C#N)cc2)C(=O)NCC2(c3ccc(C)c(F)c3)CC2)cc1
